This note sets out measurements from patent US6649623B1, “Cyclic amine derivatives and use thereof” (Shionogi & Co., Ltd., priority 1999, dated 2003).

In assay [1] the test system is KK-Ay mouse. Kind of assay: 7-day subcutaneous administration to KK-Ay mouse: body weight, food intake, blood glucose and insulin. The note with it: 80 mg/kg s.c. for 7 days; for response vs control in vivo at 80 mg/kg: sc, 192 h, male KK-Ay mouse, average; for food intake (in words): KK-Ay mouse. The class given is in vivo. The method, then:
After 80 mg/kg of the present compound was administered subcutaneously for 7 days to 7-8 week aged male KK-Ay mouse (n=5˜7, CLEA JAPAN, INC), the amount of food intake from seventh day to eighth day, and body weight of eighth day were measured. For a control group, physiological saline was used. After the body weight was measured, the blood was collected from abdominal aorta by a syringe containing 50 U heparin and centrifuged 12,000×g for five min. Glucose in blood was measured by New Blood.Sugar.Test (Boehringer Ingelheim) and insulin was measured by Insulin-EIA Test (GLAOZYME). Each value is an average value and represented by percent to each value of eighth days in the control group. As to the compounds of and after Example 13, each corresponding hydrochloride was used.

For assay [2], the system named is KK-Ay mouse. Kind of assay: Plasma leptin concentration in KK-Ay mouse (mouse leptin RIA kit). The class given is in vivo. As to conditions: 40 mg/kg s.c., after 24 hours, saline group 26.7±1.9 ng/ml. The method, then: The compound 3cs of Example 3 (40 mg/kg ) was administered subcutaneously to KK-Ay mouse. After 24 hours, the concentration of leptin in plasma was measured by using mouse leptin RIA measuring kit (Linco). The blood was collected from abdominal aorta by a syringe containing 50 U heparin and centrifuged 12,000×g for 5 min to give plasma.

Where [3] appears, read: body weight of eighth day, percent to value of control group (physiological saline), read-out: Body weight.
Setting [4] is: food intake from seventh to eighth day, percent to value of control group, read-out: Food intake.
Where [5] appears, read: glucose in blood on eighth day, percent to value of control group, read-out: Glucose.
[6] abbreviates: insulin in blood on eighth day, percent to value of control group, read-out: Insulin.

Where two headings read alike, the source gives them in different places.

In the case of `Fc1ccc(OCCCN2CC=CCC2)c(F)c1` [Example 1, 1-[3-(2,4-Difluoro-phenoxy)-propyl]-1,2,3,6-tetrahydro-pyridine], the response vs control in vivo at 80 mg/kg in the assay with KK-Ay mouse [1] (setting [3]) was determined as 85%; in the assay on KK-Ay mouse [1] (setting [4]) it was 76%; with KK-Ay mouse [1] (setting [5]), 56%; in the assay on KK-Ay mouse [1] (setting [6]), 12%.
For `Brc1ccc(OCCCN2CC=CCC2)c(Br)c1` [Example 2, 1-[3-(2,4-Dibromo-phenoxy)-propyl]-1,2,3,6-tetrahydro-pyridine], the “food intake (in words)” value in the assay with KK-Ay mouse [1] is “little repressed”. The response vs control in vivo at 80 mg/kg turned out to be 93% in the assay on KK-Ay mouse [1] (setting [3]), 100% in the assay on KK-Ay mouse [1] (setting [4]), 79% in the assay with KK-Ay mouse [1] (setting [5]) and 41% in the assay with KK-Ay mouse [1] (setting [6]).
Turning to `Clc1ccc(OCCCN2CC=CCC2)cc1Cl` [Example 3, 1-[3-(3,4-Dichloro-phenoxy)-propyl]-1,2,3,6-tetrahydro-pyridine], the “food intake (in words)” value with KK-Ay mouse [1] is recorded as “little repressed”. The response vs control in vivo at 80 mg/kg with KK-Ay mouse [1] (setting [3]) stood at 84%; with KK-Ay mouse [1] (setting [4]), 82%; in the assay with KK-Ay mouse [1] (setting [5]), 73%; with KK-Ay mouse [1] (setting [6]) it was 49%. Also, the “concentration of leptin in plasma” value in the assay on KK-Ay mouse [2] stood at 44.8 ± 5.2 ng/mL.
In the case of `Clc1cccc(OCCCN2CC=CCC2)c1` [Example 4, 1-[3-(3-Chlorophenoxy)-propyl]-1,2,3,6-tetrahydro-pyridine], the response vs control in vivo at 80 mg/kg in the assay with KK-Ay mouse [1] (setting [3]) came to 87%; with KK-Ay mouse [1] (setting [4]), 79%; in the assay with KK-Ay mouse [1] (setting [5]), 84%; in the assay on KK-Ay mouse [1] (setting [6]), 47%.
Consider `COc1cccc(OCCCN2CC=CCC2)c1` [Example 5, 1-[3-(3-Methoxy-phenoxy)-propyl]-1,2,3,6-tetrahydro-pyridine], for which the response vs control in vivo at 80 mg/kg in the assay on KK-Ay mouse [1] (setting [3]) came to 94%; with KK-Ay mouse [1] (setting [4]) it was 88%; in the assay on KK-Ay mouse [1] (setting [5]) it was 62%; in the assay with KK-Ay mouse [1] (setting [6]) it was 38%.
With `Clc1ccc(OCCCN2CC=CCC2)c(Cl)c1` [Example 6, 1-[3-(2,4-Dichloro-phenoxy)-propyl]-1,2,3,6-tetrahydro-pyridine], the “food intake (in words)” value in the assay on KK-Ay mouse [1] is “little repressed”. In addition, the response vs control in vivo at 80 mg/kg is 85% with KK-Ay mouse [1] (setting [3]), 84% with KK-Ay mouse [1] (setting [4]), 76% with KK-Ay mouse [1] (setting [5]) and 32% in the assay with KK-Ay mouse [1] (setting [6]).
For `Clc1ccc(OCCCN2CC=CCC2)c(Cl)c1Cl` [Example 7, 1-[3-(2,3,4-Trichloro-phenoxy)-propyl]-1,2,3,6-tetrahydro-pyridine], the response vs control in vivo at 80 mg/kg with KK-Ay mouse [1] (setting [3]) turned out to be 83%; in the assay on KK-Ay mouse [1] (setting [4]) it was 78%; in the assay on KK-Ay mouse [1] (setting [5]), 72%; with KK-Ay mouse [1] (setting [6]) it was 51%.
The matching figures for `Clc1ccc(COCCCN2CC=CCC2)cc1Cl` [Example 8, 1-[3-(3,4-Dichloro-benzyloxy)-propyl]-1,2,3,6-tetrahydro-pyridine]: 94%, 96%, 78% and 31%.
The matching figures for `Clc1ccc(OCCN2CC=CCC2)cc1Cl` [Example 9, 1-[2-(3,4-Dichloro-phenoxy)-ethyl]-1,2,3,6-tetrahydro-pyridine]: 87%, 83%, 71% and 53%.
The matching figures for `Clc1ccc(OCCCCN2CC=CCC2)cc1Cl` [Example 10, 1-[4-(3,4-Dichloro-phenoxy)-butyl]-1,2,3,6-tetrahydro-pyridine]: 94%, 82%, 87% and 31%.
As for `Clc1ccc(NCCCN2CC=CCC2)cc1Cl` [Example 11, (3,4-Dichlorophenyl)-[3-(3,6-dihydro-2-H-pyridin-1-yl)propyl]-amine], the response vs control in vivo at 80 mg/kg in the assay on KK-Ay mouse [1] (setting [3]) was 94%; with KK-Ay mouse [1] (setting [4]), 92%; in the assay on KK-Ay mouse [1] (setting [5]), 93%; in the assay with KK-Ay mouse [1] (setting [6]), 74%.
The matching figures for `C1=CCN(CCCOc2ccc3sccc3c2)CC1` [Example 17]: 94%, 84%, 99% and 84%.
On to `Clc1cc(Cl)cc(OCCCN2CC=CCC2)c1` [Example 21], for which the response vs control in vivo at 80 mg/kg in the assay on KK-Ay mouse [1] (setting [3]) came out at 89%; in the assay with KK-Ay mouse [1] (setting [4]) it was 74%; in the assay with KK-Ay mouse [1] (setting [5]), 80%; in the assay on KK-Ay mouse [1] (setting [6]), 53%.
For the compound `Cc1cc(OCCCN2CC=CCC2)ccc1F` [Example 23], the response vs control in vivo at 80 mg/kg in the assay with KK-Ay mouse [1] (setting [3]) was 89%; in the assay with KK-Ay mouse [1] (setting [4]), 76%; in the assay with KK-Ay mouse [1] (setting [5]) it was 67%; with KK-Ay mouse [1] (setting [6]), 91%.
The matching figures for `Cc1ccc(OCCCN2CC=CCC2)c(Cl)c1` [Example 25]: 90%, 73%, 58% and 63%.
For `Cc1ccc(OCCCN2CC=CCC2)cc1C` [Example 27], in that order: 93%, 77%, 87% and 42%.
As to `Brc1ccc(-c2ccc(OCCCN3CC=CCC3)cc2)cc1` [Example 30], the response vs control in vivo at 80 mg/kg in the assay on KK-Ay mouse [1] (setting [3]) came out at 95%; in the assay with KK-Ay mouse [1] (setting [4]), 73%; in the assay on KK-Ay mouse [1] (setting [5]), 62%; in the assay with KK-Ay mouse [1] (setting [6]), 50%.
As to `Fc1ccc(OCCCN2CC=CCC2)cc1F` [Example 32], the response vs control in vivo at 80 mg/kg in the assay on KK-Ay mouse [1] (setting [3]) is 92%; in the assay on KK-Ay mouse [1] (setting [4]), 85%; with KK-Ay mouse [1] (setting [5]), 73%; in the assay with KK-Ay mouse [1] (setting [6]), 69%.
As for `FC(F)(F)c1ccc(COc2ccc(OCCCN3CC=CCC3)cc2Cl)cc1` [Example 33], the response vs control in vivo at 80 mg/kg came out at 93% in the assay on KK-Ay mouse [1] (setting [3]), 72% in the assay with KK-Ay mouse [1] (setting [4]), 54% in the assay with KK-Ay mouse [1] (setting [5]) and 44% in the assay with KK-Ay mouse [1] (setting [6]).
Regarding `Fc1cccc(F)c1OCCCN1CC=CCC1` [Example 36], the response vs control in vivo at 80 mg/kg stood at 86% in the assay on KK-Ay mouse [1] (setting [3]), 75% in the assay with KK-Ay mouse [1] (setting [4]), 61% in the assay with KK-Ay mouse [1] (setting [5]) and 54% with KK-Ay mouse [1] (setting [6]).
Regarding `FC(F)(F)c1cccc(OCCCN2CC=CCC2)c1` [Example 39], the response vs control in vivo at 80 mg/kg stood at 95% in the assay with KK-Ay mouse [1] (setting [3]), 78% in the assay with KK-Ay mouse [1] (setting [4]), 70% in the assay on KK-Ay mouse [1] (setting [5]) and 52% in the assay on KK-Ay mouse [1] (setting [6]).
For `FC(F)(F)c1cc(OCCCN2CC=CCC2)cc(C(F)(F)F)c1` [Example 41], in that order: 88%, 77%, 56% and 48%.
The matching figures for `FC(F)(F)c1ccc(Oc2ccc(OCCCN3CC=CCC3)cc2)cc1` [Example 44]: 82%, 59%, 54% and 21%.
Turning to `Cc1ccc(F)c(OCCCN2CC=CCC2)c1` [Example 45], the response vs control in vivo at 80 mg/kg in the assay on KK-Ay mouse [1] (setting [3]) came to 94%; in the assay with KK-Ay mouse [1] (setting [4]) it was 82%; in the assay on KK-Ay mouse [1] (setting [5]), 79%; in the assay on KK-Ay mouse [1] (setting [6]) it was 70%.
The matching figures for `Fc1cc(F)c(OCCCN2CC=CCC2)c(F)c1` [Example 46]: 90%, 91%, 58% and 53%.
In the case of `CC(C)(C)c1cccc(OCCCN2CC=CCC2)c1` [Example 49], the response vs control in vivo at 80 mg/kg is 91% in the assay on KK-Ay mouse [1] (setting [3]), 80% with KK-Ay mouse [1] (setting [4]), 56% in the assay with KK-Ay mouse [1] (setting [5]) and 73% with KK-Ay mouse [1] (setting [6]).
